Values of other authors in US20090311266A1, “Inhibitors of the endothelin signalling pathway and alphavbeta3 integrin receptor antagonists for combination therapy” (BASF AKTIENGESELLSCHAFT, priority 1999, published 2009).

Key:
[1] = test system: ischemic complications after coronary interventions
[2] = test system: porcine coronary injury model
[3] = test system: pigs with coronary artery stents; settings: 28 days of oral treatment (b.i.d.)

For “abciximab: anti-platelet integrin αIIbβ3 antibody abciximab (c7E3 Fab, Reopro®)”, the “suppression of ischemic complications (endpoints death, MI or repeat intervention)” value [1] is given as “sustained suppression of ischemic complications”.
In the case of cyclo[R-G-D-Mamb-A] [XJ 735], the less lumen stenosis [2] is listed as 2.9 fold and the “reduction of neointimal hyperplasia” value [2] is listed as 43%.
In the case of CCCCN(CCCC)C(=O)CN1C[C@H](c2ccc3c(c2)OCO3)[C@@H](C(=O)O)[C@@H]1c1ccc(OC)cc1 (relative stereo) [A 127722, trans-trans-2-(4-methoxyphenyl)-4-(3,4-methylendioxyphenyl)-1-(2-(N,N-dibutylamino)-2-oxoethyl)-pyrrolidine-3-carboxylic acid], the “maximal reduction in neointima formation” value [3] is listed as “about 30%”.
